This series relates to major neurosurgery patients. The series can be described thus: Aortic Pressure/Flow loop parameters before (T0) and at peak effect (T1) of a vasoconstrictor bolus in anesthetized patients. The series is classed as in vivo, human. The conditions noted are these: for S2/Stot, Base / Alpha, Base / Beta, Base / Gamma, Base / S1, Base / S2, Base / S3, Base / S tot, Base: Base (T0, before injection); for Alpha, Base / Beta, Base / Gamma, Base: P/F loop angle; for S1, Base: P/F loop surface area S1; for S2, Base: P/F loop surface area S2; for S3, Base: P/F loop surface area S3; for Alpha, Peak / Beta, Peak / Gamma, Peak / S1, Peak / S2, Peak / S2/Stot, Peak / S3, Peak: Peak effect (T1) after peripheral venous bolus; for change in surface areas (Stot, S1, S2, S3) and angles (alpha, beta and gamma): before and after vasoconstriction, predominantly; for S tot, Base / S tot, Peak: total surface area of P/F loop; for S tot, Peak: Peak effect (T1) after peripheral venous bolus (9 mg Ephedrine, 50 μg Neophenylephrine or 5 μg Noradrenaline). More on the design: S1, Base / S2, Base / S3, Base / Alpha, Base / Beta, Base / Gamma, Base / Alpha, Variations (Diff) / Beta, Variations (Diff) / Gamma, Variations (Diff) / S1, Variations (Diff) / S2, Variations (Diff) / S3, Variations (Diff): unit not given here. An excerpt:
1.1 Parameters Measured • The Pressure signal is collected in mmHg (FIG. 2), by means of a radial or femoral arterial catheter. • The esophageal Doppler signal giving the aortic flow in ml/s (FIG. 2) is collected via the Deltex® combi Q monitor. • The Pressure/Flow loop is constructed heart beat by heart beat with the simultaneous values of aortic flow on the x-axis and of pressure on the y-axis.
1.2 Description of the Various Parameters Resulting from the Aortic Pressure/Flow Loop: • the various specific points of the loop (FIG. 3-4): • A: diastolic pressure: the flow is zero before the beginning of systole. • B: maximum flow. • C: maximum pressure (systolic pressure). • D: dicrotic pressure: pressure at closing of the aortic valves: flow at 0, beginning of diastole. • The various specific straight lines of the loop: • straight line passing through points A and B: straight line between the beginning of the cycle and the point where the flow rate is at the maximum. • straight line passing through points A and C: straight line between the beginning of the cycle and the point where the pressure is at the maximum. • The various specific surface areas of the loop (FIG. 5): • Stot: total surface area of the Pressure/Flow loop. • S1: surface area between the lower part of the curve and the straight line (AB). • S2: surface area of the loop included between the two straight lines (AB) and (AC). • S3: surface area of the loop included between the straight line (AC) and the upper edge of the loop. • The various angles of the loop (FIG. 6): • Alpha: angle between the horizontal passing through point A and the straight line (AB). • Beta: angle between the horizontal passing through point A and the straight line (AC). • Gamma: angle between the two straight lines (AB) and (AC).
The study was carried out in the operating theatre on major neurosurgery patients, after agreement from the Ethics Committee (CE SRLF 11-356) and obtaining of informed consent. In addition to the standard monitoring, a device for simultaneous invasive measurement of arterial pressure and measurement of cardiac output by trans-esophageal Doppler (CombiQ®, Deltex Medical) was set out after induction of general anesthesia. Moreover, in order to have a reflection of arterial elastance and of arterial stiffness, an arterial tonometer (SphygmoCor®, AtCor Medical) was used to obtain the curve of central arterial pressure and the arterial stiffness indices. This device is currently the reference for quantifying arterial stiffness (represented by the augmentation index: Aix, FIG. 11) and monitors its evolution as a function of vasoactive therapies.
Patients having episodes of decrease in arterial pressure (decrease of 20% compared with the target pressure) and requiring the administration of a vasoconstrictor were included. Before each injection of […] (T0) and then at the time of the peak effect of the vasopressin (T1) the Pressure/Flow loops were plotted and the parameters derived from the loop were calculated. At the same time, using the SphygmoCor®, the augmentation index (Aix) and the arterial elastance (Ea) were recorded.
Depending on the anesthetists' choice, the patients received either 9 mg of Ephedrine, or 50 μg of Neophenylephrine, or 5 μg of Noradrenaline administered via a peripheral venous route.
Statistical Analysis: • search for the correlation between the Aix measured by SphygmoCor®, with the parameters of the P/F loop at T0 and at T1. • comparison of the evolution of the parameters of the P/F loop as a function of the use of Ephedrine, of Neosynephrine or of Noradrenaline. • comparison of the parameters of the P/F loop at T0 between the patients having cardiovascular risk factors and the patients not having risk factors. • study of the variations of the parameters of the P/F loop before and after vasoconstriction as a function of the patient's susceptibility to illness and of the type of vasoconstrictor used.

Take `NC[C@H](O)c1ccc(O)c(O)c1` [Noradrenaline]: the “S2/Stot, Base” value is 26.4; the “Alpha, Base” value turned out to be 8.5; the “Beta, Base” value is reported as 11.5; the “Gamma, Base” value stood at 2.2. The “S1, Base” value was 1775; the “S2, Base” value was 1215.9; the “S3, Base” value is on record as 1860.8; the “Alpha, Peak” value worked out at 10.6. Also, the “Beta, Peak” value came to 14.2; the “Gamma, Peak” value worked out at 3.2; the “S1, Peak” value is given as 1963.2; the “S2, Peak” value is on record as 1957.4. Further, the “S2/Stot, Peak” value came out at 27.9; the “S3, Peak” value came out at 2311.5; the “change in surface areas (Stot, S1, S2, S3) and angles (alpha, beta and gamma)” value (“change in surface areas” below) was “significant increase”; the “S tot, Base” value worked out at 5291. Moreover, the “S tot, Peak” value is 6582.
On to `CN[C@@H](C)[C@H](O)c1ccccc1` [Ephedrine], for which the “S2/Stot, Base” value turned out to be 34.2; the “Alpha, Base” value was 7.4; the “Beta, Base” value was found to be 10.9; the “Gamma, Base” value came out at 1.8. Besides, the “S1, Base” value came to 1997; the “S2, Base” value is 1709; the “S3, Base” value was determined as 1658.8; the “Alpha, Peak” value worked out at 9.5. For the same compound, the “Beta, Peak” value is listed as 13.3; the “Gamma, Peak” value was determined as 2.4; the “S1, Peak” value came out at 2722; the “S2, Peak” value was determined as 2694.4. Moreover, the “S2/Stot, Peak” value turned out to be 32.6; the “S3, Peak” value is listed as 2242.5; the “change in surface areas” value was “significant increase”; the “S tot, Base” value amounted to 4889. In addition, the “S tot, Peak” value is 6974.
Turning to `CNC[C@H](O)c1cccc(O)c1` [Neosynephrine], the “S2/Stot, Base” value is 26.9; the “Alpha, Base” value is 8.5; the “Beta, Base” value came out at 11.2; the “Gamma, Base” value is 2.1. The “S1, Base” value is 2028; the “S2, Base” value amounted to 1255.2; the “S3, Base” value was found to be 1851.1; the “Alpha, Peak” value is listed as 10.6. Further, the “Beta, Peak” value was 16.2; the “Gamma, Peak” value was 5.4; the “S1, Peak” value is 2516; the “S2, Peak” value was determined as 2624.7. The “S2/Stot, Peak” value is reported as 31.2; the “S3, Peak” value is 2452.2; the “change in surface areas” value is given as “significant increase”; the “S tot, Base” value came to 5344. Moreover, the “S tot, Peak” value was 7412. The “increase of the beta and gamma angles” value (FIG. 13, for similar pressure increases induced by the vasoconstrictors) was “significantly more than Noradrenaline and Ephedrine”. Moreover, where the note is “NEOSYNEPHRINE vs NORADRENALINE”, the “Alpha, Variations (Diff)” value is listed as −0.02; the “Beta, Variations (Diff)” value came to 2.55; the “Gamma, Variations (Diff)” value is on record as 2.59; the “S1, Variations (Diff)” value was 266.01. Further, for the setting “NEOSYNEPHRINE vs NORADRENALINE”, the “S1/Stot %, Variations (Diff)” value was −4.61%; the “S2, Variations (Diff)” value is reported as 615.97; the “S2/Stot %, Variations (Diff)” value came to 6.6%; the “S3, Variations (Diff)” value was 221.27. Besides, for the setting “NEOSYNEPHRINE vs NORADRENALINE”, the “S3/Stot %, Variations (Diff)” value was −2.13% and the “S tot, Variations (Diff)” value is recorded as 1072.27. For the same compound, under “compared with the other two vasoconstrictors”, the “increase with respect to Stot, beta, gamma and S2 (absolute and S2/Stot)” value was “greater increase than the other two vasoconstrictors”. Moreover, under “reflected by greater increase in S2 and in beta and gamma angles”, the “effect on ventricular-aortic coupling” value was “detrimental effect”.
